One assay concerns the target SARS-CoV-2 M^pro (Severe acute respiratory syndrome coronavirus 2, UniProt P0DTD1). In words: FRET assay, inhibition of recombinant SARS-CoV-2 Mpro (optimized conditions). The assay is classed as biochemical. The conditions noted are these: FRET substrate Dabcyl-KTSAVLQ↓SGFRKM-E(Edans)-NH2, 50 nM enzyme, pH 7.0, 37 °C, 10 min preincubation.
The next assay has as its target HCoV-NL63 M^pro (Human coronavirus NL63, UniProt P0C6X5). In words: biochemical.
A further assay concerns the target EV-A71 3C^pro (Human enterovirus 71, UniProt Q66478). In words: FRET assay, inhibition of enterovirus A71 3C protease. The assay is classed as biochemical. The protocol: (§1) We had previously shown that enterovirus 3C proteases have a substrate-binding site featuring some similarities with coronavirus main proteases, although their S2 subsite tends to be more open. Leucine is the ideal P2-amino-acid residue in M^pro substrates, whereas most 3C^pros favor Phe in this position.
(§2) Assay samples contained 59 µL of reaction buffer (20 mM HEPES, 120 mM NaCl, 0.4 mM EDTA, 20% glycerol, 4 mM DTT (freshly added before the measurements), pH 7.0, 10 µL enzyme solution (final concentration of Coxsackievirus B3 3C^pro or enterovirus A71 3C^pro: 1.0 µM).
(§3) All reactions were monitored at 37 °C for 15 min. Measurements of enzymatic activity were performed in triplicate and the value was presented as mean ± standard deviation (SD). The initial velocity of the enzymatic reaction with compounds was calculated by linear regression for the first minute of the progression curve. […] V0 is the velocity obtained for the DMSO control (inhibitor concentration of 0 µM).
(§4) […] of inhibitors (dose-response-inhibition). The IC50 values were calculated by non-linear regression (Curve fit: Y: Bottom + (Top-Bottom)/(1 + 10^ ((X-lg IC50))) using GraphPad Prism 9.0.

The target of the next assay is CVB3 3C^pro (Coxsackievirus B3, UniProt P03313). Briefly: FRET assay, inhibition of Coxsackievirus B3 3C protease. The assay is classed as biochemical. The protocol:
as §1, §2, §3, §4

Another assay has as its target SARS-CoV M^pro (Severe acute respiratory syndrome coronavirus, UniProt P0C6X7). The assay is classed as biochemical.
Setting [1] is: inhibitor concentration not given, data not shown.

Each structure is given as a SMILES string.

As usually defined, the IC50 is the concentration that inhibits the measured activity by half.

Chain of HCoV-NL63 M^pro (P0C6X5 2940-3242): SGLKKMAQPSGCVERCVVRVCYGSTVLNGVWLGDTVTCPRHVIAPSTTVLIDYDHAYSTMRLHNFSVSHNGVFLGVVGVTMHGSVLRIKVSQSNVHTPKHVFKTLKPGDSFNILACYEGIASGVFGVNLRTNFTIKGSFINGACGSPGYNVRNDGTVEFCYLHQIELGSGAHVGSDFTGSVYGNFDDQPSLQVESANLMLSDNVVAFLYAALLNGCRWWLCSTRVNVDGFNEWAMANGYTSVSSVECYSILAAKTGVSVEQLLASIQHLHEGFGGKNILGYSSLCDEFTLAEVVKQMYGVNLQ
Chain of EV-A71 3C^pro (Q66478 1549-1731): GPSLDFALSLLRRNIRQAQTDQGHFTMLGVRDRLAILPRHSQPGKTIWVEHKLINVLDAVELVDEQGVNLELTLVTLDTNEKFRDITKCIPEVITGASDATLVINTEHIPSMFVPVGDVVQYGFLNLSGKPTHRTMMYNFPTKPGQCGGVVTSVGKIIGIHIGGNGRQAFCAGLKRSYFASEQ
Chain of CVB3 3C^pro (P03313 1541-1723): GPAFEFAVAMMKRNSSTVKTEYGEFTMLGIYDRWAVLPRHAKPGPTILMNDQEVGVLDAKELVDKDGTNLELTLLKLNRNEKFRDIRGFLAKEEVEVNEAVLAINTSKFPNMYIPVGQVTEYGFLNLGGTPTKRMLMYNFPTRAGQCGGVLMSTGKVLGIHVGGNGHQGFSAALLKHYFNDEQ

As to `CNC(=O)C(=O)[C@H](C[C@@H]1CCNC1=O)NC(=O)[C@@H]1[C@@H]2[C@H](CN1C(=O)[C@@H](NC(=O)NC(C)(C)C)C(C)(C)C)C2(C)C` [MG-131, (1R,2S,5S)-3-((S)-2-(3-tert-Butylureido)-3,3-dimethylbutanoyl) -6,6-dimethyl-N-((S)-4-(methylamino)-3,4-dioxo-1-((S)-2-oxopyrrolidin-3-yl)butan-2-yl)-3-azabicyclo[3.1.0]hexane-2-carboxamide], the IC50 at SARS-CoV-2 M^pro is 14 ± 3 nM.

For the compound `CC(C)(C)NC(=O)NC(C(=O)N1CC2C(C1C(=O)NC(CC1CCNC1=O)C(=O)C(N)=O)C2(C)C)C(C)(C)C` [MG-78, (1R,2S,5S)-N-((S)-4-Amino-3,4-dioxo-1-((S)-2-oxopyrrolidin-3-yl)butan2-yl)-3-((S)-2-(3-tert-butylureido)-3,3-dimethylbutanoyl)-6,6-dimethyl-3-azabicylo[3.1.0]hexane-2-carboxamide], the “Factor by which IC50 versus HCoV-NL63 M^pro is larger than that for SARS-CoV-2 M^pro” value at HCoV-NL63 M^pro came to 25. Besides, the IC50 on HCoV-NL63 M^pro stood at 330 nM; on EV-A71 3C^pro (10 µM FRET substrate Dabcyl-KEALFQ↓GPPQFE(-Edans)-NH2, 1.0 µM enzyme, 37 °C, read-out: IC50 against EV-A71 3C^pro), 6700 nM; at CVB3 3C^pro (10 µM FRET substrate Dabcyl-KEALFQ↓GPPQFE(-Edans)-NH2, 1.0 µM enzyme, 37 °C, read-out: IC50 against CVB3 3C^pro), 1450 nM.

For `CC1(C)C2CN(C(=O)C=Cc3ccccc3)C(C(=O)NC(CC3CCNC3=O)C(=O)C(=O)NCc3ccccc3)C21` (centres unmarked) [XDL2a], the “Activity in SARS-CoV M^pro assay” value at SARS-CoV M^pro was “completely inactive”.

For the compound `CC(C)(C)[C@H](NC(=O)C(F)(F)F)C(=O)N1C[C@H]2[C@@H]([C@H]1C(=O)N[C@H](C#N)C[C@@H]1CCNC1=O)C2(C)C` [nirmatrelvir, reference compound], at EV-A71 3C^pro (setting [1]), the “Inhibition rate against the 3C protease of EV-A71” value worked out at 33%. Also, at CVB3 3C^pro (setting [1]), the “Inhibition rate against the 3C protease of CVB3” value turned out to be 55%.
